Measured values as given in ChEMBL document CHEMBL5113380, “Functionalized quinoxalinones as privileged structures with broad-ranging pharmacological activities” (Eur J Med Chem, 2022).
pEC50, pIC50, pKi: −log10 of the molar value. Converted amounts (≈) assume the structure as drawn. One block for each molecule: values may come before it.

Key:
[1] = tested on: HeLa; experiment: Antiproliferative activity against human HeLa cells; type: functional, cell-based
[2] = tested on: SMMC-7721; experiment: Antiproliferative activity against human SMMC-7721 cells; type: functional, cell-based
[3] = tested on: HT-29; experiment: Antiproliferative activity against human HT-29 cells; type: functional, cell-based
[4] = tested on: Anopheles sp.; experiment: Larvicidal activity against Anopheles at 1 ug/ml; type: functional; conditions: dose 1.0 µg/ml
[5] = tested on: Anopheles sp.; experiment: Larvicidal activity against Anopheles at 0.5 ug/ml; type: functional; conditions: dose 0.5 µg/ml
[6] = tested on: Anopheles sp.; experiment: Larvicidal activity against Anopheles at 0.25 ug/ml; type: functional; conditions: dose 0.25 µg/ml
[7] = tested on: Anopheles sp.; experiment: Larvicidal activity against Anopheles at 0.1 ug/ml; type: functional; conditions: dose 0.1 µg/ml
[8] = target: Glutamate [NMDA] receptor; experiment: Displacement of [3H]NMDA from NMDA receptor (unknown origin); type: protein-complex assay, Homo sapiens
[9] = target: Glutamate [NMDA] receptor; experiment: Displacement of [3H]L-689560 from NMDA receptor (unknown origin); type: protein-complex assay, Homo sapiens
[10] = Aqueous solubility of the compound; type: physicochemical; conditions: buffer
[11] = target: T1, Group XIIA secretory phospholipase A2 (Homo sapiens, UniProt Q9BZM1); experiment: Inhibition of human PLA2G12A
T1 sequence (Q9BZM1 whole entry): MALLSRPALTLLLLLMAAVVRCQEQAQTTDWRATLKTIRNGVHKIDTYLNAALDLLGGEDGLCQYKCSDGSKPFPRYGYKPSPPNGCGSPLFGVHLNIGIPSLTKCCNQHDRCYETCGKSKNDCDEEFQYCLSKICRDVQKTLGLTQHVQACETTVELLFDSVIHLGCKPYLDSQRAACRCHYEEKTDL

[12] = target: T2, Alpha amylase (Homo sapiens, UniProt P0DUB6); experiment: Inhibition of alpha-amylase (unknown origin)
T2 sequence (P0DUB6 whole entry): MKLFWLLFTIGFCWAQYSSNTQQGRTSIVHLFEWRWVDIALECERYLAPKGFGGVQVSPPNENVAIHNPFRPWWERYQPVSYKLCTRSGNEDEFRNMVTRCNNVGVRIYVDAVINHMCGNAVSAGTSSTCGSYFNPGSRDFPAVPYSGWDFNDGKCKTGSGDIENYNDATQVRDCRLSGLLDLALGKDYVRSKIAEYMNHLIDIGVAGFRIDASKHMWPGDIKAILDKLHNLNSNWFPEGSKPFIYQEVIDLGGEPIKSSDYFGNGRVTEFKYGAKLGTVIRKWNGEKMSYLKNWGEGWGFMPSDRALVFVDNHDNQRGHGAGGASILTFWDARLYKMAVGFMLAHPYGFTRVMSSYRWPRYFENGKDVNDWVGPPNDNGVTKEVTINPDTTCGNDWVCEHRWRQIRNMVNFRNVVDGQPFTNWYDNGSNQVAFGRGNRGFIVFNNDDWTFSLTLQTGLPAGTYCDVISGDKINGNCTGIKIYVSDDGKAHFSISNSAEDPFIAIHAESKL

[13] = target: Phospholipase A2, major isoenzyme (Sus scrofa, UniProt P00592); experiment: Inhibition of porcine PLA2G1B
[14] = target: T3, Phospholipase A2 group V (Homo sapiens, UniProt P39877); experiment: Inhibition of human PLA2G5
T3 sequence (P39877 whole entry): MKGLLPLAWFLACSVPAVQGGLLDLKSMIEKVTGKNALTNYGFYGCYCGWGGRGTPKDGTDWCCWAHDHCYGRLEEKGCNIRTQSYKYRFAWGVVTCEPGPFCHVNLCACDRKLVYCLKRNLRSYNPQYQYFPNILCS

[15] = target: T4, Group 10 secretory phospholipase A2 (Homo sapiens, UniProt O15496); experiment: Inhibition of human PLA2G10
T4 sequence (O15496 whole entry): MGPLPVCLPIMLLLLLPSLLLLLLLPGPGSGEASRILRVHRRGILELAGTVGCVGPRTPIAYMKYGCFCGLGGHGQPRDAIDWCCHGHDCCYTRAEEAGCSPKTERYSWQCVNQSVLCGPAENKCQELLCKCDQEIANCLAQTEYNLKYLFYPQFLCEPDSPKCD

[16] = target: T5, Phospholipase A2, membrane associated (Homo sapiens, UniProt P14555); experiment: Inhibition of human PLA2G2A
T5 sequence (P14555 whole entry): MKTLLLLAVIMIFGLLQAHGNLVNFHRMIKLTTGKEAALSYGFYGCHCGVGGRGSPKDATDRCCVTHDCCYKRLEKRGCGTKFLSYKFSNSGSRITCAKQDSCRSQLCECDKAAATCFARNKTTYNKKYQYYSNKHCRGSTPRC

[17] = target: Glutamate receptor ionotropic AMPA (Homo sapiens, UniProt P42261+P42262+P42263+P48058); experiment: Antagonist activity at AMPA receptor (unknown origin); type: protein-complex assay
[18] = tested on: Rattus norvegicus; experiment: Ulcerogenic activity in male albino rat assessed as ulceration at 25 mg/kg, po; type: functional
[19] = tested on: RAW264.7; experiment: Anti-inflammatory activity in mouse RAW264.7 cells assessed as inhibition of LPS-induced NO production at 10 uM after 24 hrs by Griess reagent-based assay; type: functional; design: scale not given: the % may be the effect or the level left
[20] = tested on: Mus musculus; experiment: Antiinflammatory activity against mouse assessed as reduction in carragenan-induced paw edema at 25 mg/kg,po treated 1 hr prior to carrageenan challenge; type: functional; design: scale not given: the % may be the effect or the level left
[21] = Cytotoxicity against rat myoblast L6 cells; type: toxicity, cell-based
[22] = tested on: Trypanosoma brucei; experiment: Antitrypanosomal activity against Trypanosoma brucei; type: functional, organism-based
[23] = Ratio IC50 for cytotoxicity against rat myoblast L6 cells over IC50 for antitrypanosomal activity against Trypanosoma brucei; type: toxicity, cell-based; conditions: read-out: Ratio IC50
[24] = species: Homo sapiens; experiment: Binding affinity to estrogen receptor (unknown origin) relative to control
[25] = Metabolic stability in rat liver microsomes assessed as half-life; type: ADME, Microsome
[26] = species: Homo sapiens; experiment: Binding affinity to Creatine kinase (CK) (unknown origin) relative to control
[27] = Binding affinity to Creatine kinase (CK) (unknown origin); design: species or system Homo sapiens
[28] = Aqueous solubility of the compound at pH 7.4; type: physicochemical; conditions: buffer
[29] = Binding affinity to estrogen receptor (unknown origin); design: species or system Homo sapiens
[30] = target: Kappa-type opioid receptor (Homo sapiens, UniProt P41145); experiment: Antagonist at KOR expressed in human U2OS cells measured by High content imaging based beta-arrestin translocation assay; type: cell-based
[31] = tested on: HeLa S3; experiment: Cytotoxicity against human HeLa S3 cells; type: functional, cell-based
[32] = species: Homo sapiens; experiment: Ratio IC50 for inhibition of JNK1 (unknown origin) over JNK3 (unknown origin)
[33] = species: Homo sapiens; experiment: Ratio IC50 for inhibition of JNK2 (unknown origin) over JNK3 (unknown origin)
[34] = target: Glutamate [NMDA] receptor; experiment: Displacement of [3H]kainic acid from NMDA receptor (unknown origin); type: protein-complex assay, Homo sapiens
[35] = Displacement of [3H]AMPA from NMDA receptor (unknown origin); type: protein-complex assay, Homo sapiens
[36] = target: Glutamate [NMDA] receptor; experiment: Displacement of [3H]CGP-39653 from NMDA receptor (unknown origin); type: protein-complex assay, Homo sapiens
[37] = target: Glutamate [NMDA] receptor; experiment: Displacement of [3H]DCKA from NMDA receptor (unknown origin); type: protein-complex assay, Homo sapiens
[38] = tested on: Candida; experiment: Antifungal activity against Candida species; type: functional
[39] = tested on: Pseudomonas aeruginosa; experiment: Antibacterial activity against Pseudomonas aeruginosa; type: functional

Sequence of Phospholipase A2, major isoenzyme (P00592 whole entry): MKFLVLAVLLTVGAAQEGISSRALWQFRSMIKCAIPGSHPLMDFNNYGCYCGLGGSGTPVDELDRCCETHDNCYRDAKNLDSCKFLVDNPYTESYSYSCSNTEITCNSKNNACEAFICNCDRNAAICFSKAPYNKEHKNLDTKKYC
Sequence of Kappa-type opioid receptor (P41145 whole entry): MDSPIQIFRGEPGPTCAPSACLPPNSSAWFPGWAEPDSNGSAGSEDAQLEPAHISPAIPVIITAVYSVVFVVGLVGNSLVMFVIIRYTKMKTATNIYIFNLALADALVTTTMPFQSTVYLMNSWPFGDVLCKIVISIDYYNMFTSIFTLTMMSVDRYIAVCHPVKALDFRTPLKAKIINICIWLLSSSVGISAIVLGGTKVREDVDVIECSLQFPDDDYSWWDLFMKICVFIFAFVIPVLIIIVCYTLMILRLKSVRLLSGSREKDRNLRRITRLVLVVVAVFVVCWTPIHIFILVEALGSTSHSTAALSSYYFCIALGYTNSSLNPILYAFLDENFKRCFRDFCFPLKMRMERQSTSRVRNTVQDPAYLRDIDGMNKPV

pIC50 [1]: 6.16 | pIC50 [2]: 5.80 | pIC50 [3]: 5.83
Structure (SMILES): COc1ccc2c(c1)[nH]c(=O)c(=O)n2Cc1cc(OC)c(OC)c(OC)c1

Structure (SMILES): COc1ccc2nc(-c3ccccc3)c(=O)n(CC#N)c2c1
Activity [4]: 73.7% | Activity [5]: 66.7% | Activity [6]: 66.7% | Activity [7]: 60%

Structure (SMILES): C=Cn1c(=O)c(-c2ccccc2)nc2ccc(OC)cc21
Activity [4]: 100% | Activity [5]: 100% | Activity [6]: 100% | Activity [7]: 80%

pIC50 [8]: 7.05 | pIC50 [9]: 8.59 | solubility [10]: > 5000 µg/mL
Structure (SMILES): CCC(c1c(Cl)c(Cl)cc2nc(O)c(O)nc12)n1cnnc1 (stereo not drawn)

pIC50 [11]: 5.59 | IC50 [12]: 806190 nM | pIC50 [13]: 4.87 | pIC50 [14]: 5.82 | pIC50 [15]: 5.98 | pIC50 [16]: 6.12
Structure (SMILES): O=c1[nH]c2ccccc2n2c(-c3ccc([N+](=O)[O-])cc3[N+](=O)[O-])ccc12

pEC50 [17]: 3.52
Structure (SMILES): Cc1cc2[nH]c(=O)c(=O)n(C[C@@H](N)C(=O)O)c2cc1C

Structure (SMILES): Cc1cccc(Oc2nn3c(C(N)=O)nnc3c3ccccc23)c1
Activity [18]: 20% | Activity [19]: 10.31% | Activity [20]: 42.81%

pIC50 [22]: 5.57
Structure (SMILES): O=C1Nc2cc([N+](=O)[O-])ccc2N2CCCC12 (stereo not drawn)
pIC50 [21]: 4.33 | selectivity ratio [23]: 17.4

Activity [24]: 96% | half-life [25]: > 30 min | Activity [26]: 36% | pEC50 [27]: 6.77 | solubility [28]: > 100 µg/mL | pIC50 [29]: 7.70
Structure (SMILES): CC[C@H]1C(=O)N(C)c2ccc(F)cc2N1C(=O)c1ccc(O)cc1O

pIC50 [11]: 5.85 | IC50 [12]: 431810 nM | pIC50 [13]: 4.84 | pIC50 [14]: 5.52 | pIC50 [15]: 5.57 | pIC50 [16]: 5.74
Structure (SMILES): O=c1[nH]c2ccccc2n2c(-c3ccc(Cl)c(Cl)c3)ccc12

pIC50 [30]: 5.55
Structure (SMILES): COc1ccc(N2CCN(CCCNC(=O)CN3C(=O)C4CCCN4c4c(C)ccnc43)CC2)cc1 (stereo not drawn)

Structure (SMILES): CCC(C)C1Nc2ccccc2NC1=O (stereo not drawn)
pIC50 [31]: 4.76

Ratio IC50 [32]: > 500 | Ratio IC50 [33]: > 500
Structure (SMILES): N#Cc1ccc2c(c1)N/C(=C\C(=O)c1cccc3ccccc13)C(=O)N2

pIC50 [34]: < 4.60 | pIC50 [35]: 5.34 | pIC50 [36]: < 4.60 | pKi [37]: 8.59
Structure (SMILES): O=C(CC1CCc2cc(Br)cc3[nH]c(=O)c(=O)n1c23)Nc1ccccc1 (stereo not drawn)

MIC [38]: 250 µg/mL (≈ 1080 µM) | MIC [39]: 250 µg/mL (≈ 1080 µM)
Structure (SMILES): CCOC(=O)c1nc2ccc(C)cc2[nH]c1=O

Structure (SMILES): CCCn1cnc(Cc2c(Cl)c(Cl)cc3nc(O)c(O)nc23)c1
pIC50 [8]: 6.46 | pIC50 [9]: 8.36 | solubility [10]: > 10000 µg/mL

Structure (SMILES): N#Cc1ccc2c(c1)N1CCCCC1C(=O)N2 (stereo not drawn)
pIC50 [31]: 5.12
